# Experimental data taken from ChEMBL document CHEMBL1152121, “Improvement of water solubility of non-competitive AMPA receptor antagonists by complexation with beta-cyclodextrin” (Bioorg Med Chem, 2008).
# Columns and labels:
# [1] = Binding affinity to beta-cyclodextrin in aqueous solution after 72 hrs by phase-solubility measurements; type: ADME; conditions: buffer
# [2] = Aqueous solubility of the compound; type: physicochemical; conditions: water
K [1] [M⁻¹],solubility [2] [mM],Structure (SMILES)
1079,3,COc1cc2c(cc1OC)C(c1ccc(Cl)cc1)N(C(C)=O)CC2 (racemic)
15889,5,COc1cc2c(cc1OC)[C@@H](c1ccc(Cl)cc1)N(C(C)=O)CC2
